Assay results as given in ChEMBL document CHEMBL5724914, “Linking interpersonal differences in gut microbiota composition and drug biotransformation activity” (2024).

How the values were obtained:
[1] = (§1) The drug is tested on Z-028 corresponding to mouse gut metagenome with ENA study accession number: PRJEB37062 and ENA sample accession number: ERS12561827 for biotransformation under anaerobic condition. The drug concentrations were measured over 9 timepoints collected between 0 and 24 hours of incubation by liquid-chromatography-coupled mass spectrometry (LC–MS); conditions: 2 µM
[2] = as §1, with “Z-026” for “Z-028”, “to” for “to mouse gut”, “ERS12561825” for “ERS12561827”; conditions: 2 µM
[3] = as §1, with “Z-023” for “Z-028”, “to” for “to mouse gut”, “ERS12561822” for “ERS12561827”; conditions: 2 µM
[4] = as §1, with “Z-022” for “Z-028”, “ERS12561821” for “ERS12561827”; conditions: 2 µM
[5] = as §1, with “Z-021” for “Z-028”, “to” for “to mouse gut”, “ERS12561820” for “ERS12561827”; conditions: 2 µM
[6] = as §1, with “Z-016” for “Z-028”, “ERS12561815” for “ERS12561827”; conditions: 2 µM
[7] = as §1, with “Z-013” for “Z-028”, “rabbit” for “mouse”, “ERS12561813” for “ERS12561827”; conditions: 2 µM
[8] = as §1, with “Z-007” for “Z-028”, “rat” for “mouse”, “ERS12561807” for “ERS12561827”; conditions: 2 µM
[9] = as §1, with “Z-001” for “Z-028”, “ERS12561801” for “ERS12561827”; conditions: 2 µM
[10] = as §1, with “WLS-098” for “Z-028”, “human” for “mouse”, “ERS12561754” for “ERS12561827”; conditions: 2 µM
[11] = as §1, with “WLS-007” for “Z-028”, “human” for “mouse”, “ERS12561742” for “ERS12561827”; conditions: 2 µM
[12] = human gut metagenome, 24 h, 2 µM
[13] = human gut metagenome, 24 h, 2 µM; remark: listed apart in the source
[14] = human gut metagenome, 24 h, 2 µM; remark: listed apart in the source
[15] = human gut metagenome, 24 h, 2 µM; remark: listed apart in the source
[16] = human gut metagenome, 24 h, 2 µM; remark: listed apart in the source
[17] = human gut metagenome, 24 h, 2 µM; remark: listed apart in the source
[18] = human gut metagenome, 24 h, 2 µM; remark: listed apart in the source
[19] = human gut metagenome, 24 h, 2 µM; remark: listed apart in the source
[20] = human gut metagenome, 24 h, 2 µM; remark: listed apart in the source
Further: call rule not given here.

Structure (SMILES) | Bacterial Biotransformation [1] | Bacterial Biotransformation [2] | Bacterial Biotransformation [3] | Bacterial Biotransformation [4] | Bacterial Biotransformation [5] | Bacterial Biotransformation [6] | Bacterial Biotransformation [7] | Bacterial Biotransformation [8] | Bacterial Biotransformation [9] | Bacterial Biotransformation [10] | Bacterial Biotransformation [11] | Bacterial Biotransformation [12] | Bacterial Biotransformation [13] | Bacterial Biotransformation [14] | Bacterial Biotransformation [15] | Bacterial Biotransformation [16] | Bacterial Biotransformation [17] | Bacterial Biotransformation [18] | Bacterial Biotransformation [19] | Bacterial Biotransformation [20]
O=C(NCc1ccccc1)OCCO [BURAMATE] | Compound NOT metabolized | Compound NOT metabolized | Compound NOT metabolized | Compound NOT metabolized | Compound NOT metabolized | Compound NOT metabolized | Compound NOT metabolized | Compound NOT metabolized | Compound NOT metabolized | Compound NOT metabolized | Compound NOT metabolized | Compound NOT metabolized | Compound NOT metabolized | Compound NOT metabolized | Compound NOT metabolized | Compound NOT metabolized | Compound NOT metabolized | Compound NOT metabolized | Compound NOT metabolized | Compound NOT metabolized
CCN(CC)CCOCCOC(=O)C1(c2ccccc2)CCCC1.O=C(O)CC(O)(CC(=O)O)C(=O)O [CARBETAPENTANE CITRATE] | Compound NOT metabolized | Compound NOT metabolized | Compound NOT metabolized | Compound metabolized | Compound metabolized | Compound metabolized | Compound NOT metabolized | Compound NOT metabolized | Compound NOT metabolized | Compound metabolized | Compound NOT metabolized | Compound metabolized | Compound metabolized | Compound metabolized | Compound NOT metabolized | Compound metabolized | Compound metabolized | Compound metabolized | Compound metabolized | Compound metabolized
O=C(O)COCCN1CCN(C(c2ccccc2)c2ccc(Cl)cc2)CC1 (stereo not given) [CETIRIZINE] | Compound NOT metabolized | Compound NOT metabolized | Compound metabolized | Compound metabolized | Compound metabolized | Compound metabolized | Compound NOT metabolized | Compound NOT metabolized | Compound NOT metabolized | Compound metabolized | Compound metabolized | Compound metabolized | Compound metabolized | Compound metabolized | Compound metabolized | Compound metabolized | Compound metabolized | Compound metabolized | Compound metabolized | Compound metabolized
CN/C(=N/CCSCc1nc[nH]c1C)NC#N [CIMETIDINE] | Compound NOT metabolized | Compound NOT metabolized | Compound NOT metabolized | Compound NOT metabolized | Compound NOT metabolized | Compound NOT metabolized | Compound NOT metabolized | Compound NOT metabolized | Compound NOT metabolized | Compound metabolized | Compound NOT metabolized | Compound NOT metabolized | Compound NOT metabolized | Compound NOT metabolized | Compound metabolized | Compound metabolized | Compound NOT metabolized | Compound metabolized | Compound metabolized | Compound metabolized
Br.CN(C)CCCC1(c2ccc(F)cc2)OCc2cc(C#N)ccc21 (stereo not given) [CITALOPRAM HYDROBROMIDE] | Compound NOT metabolized | Compound NOT metabolized | Compound NOT metabolized | Compound NOT metabolized | Compound NOT metabolized | Compound NOT metabolized | Compound NOT metabolized | Compound NOT metabolized | Compound NOT metabolized | Compound metabolized | Compound NOT metabolized | Compound NOT metabolized | Compound metabolized | Compound NOT metabolized | Compound NOT metabolized | Compound metabolized | Compound metabolized | Compound metabolized | Compound NOT metabolized | Compound metabolized
CN(C)CCC=C1c2ccccc2C=Cc2ccccc21 [CYCLOBENZAPRINE] | Compound NOT metabolized | Compound NOT metabolized | Compound metabolized | Compound NOT metabolized | Compound metabolized | Compound NOT metabolized | Compound NOT metabolized | Compound NOT metabolized | Compound metabolized | Compound metabolized | Compound metabolized | Compound NOT metabolized | Compound metabolized | Compound NOT metabolized | Compound metabolized | Compound metabolized | Compound metabolized | Compound metabolized | Compound metabolized | Compound metabolized
C[C@@H]1C[C@H]2[C@@H]3CCC4=CC(=O)C=C[C@]4(C)[C@@]3(F)[C@@H](O)C[C@]2(C)[C@@]1(O)C(=O)CO [DEXAMETHASONE] | Compound NOT metabolized | Compound NOT metabolized | Compound metabolized | Compound metabolized | Compound metabolized | Compound NOT metabolized | Compound NOT metabolized | Compound NOT metabolized | Compound NOT metabolized | Compound NOT metabolized | Compound NOT metabolized | Compound NOT metabolized | Compound NOT metabolized | Compound NOT metabolized | Compound NOT metabolized | Compound NOT metabolized | Compound NOT metabolized | Compound NOT metabolized | Compound NOT metabolized | Compound NOT metabolized
O=C(Nc1ccccc1)OCC(CN1CCCCC1)OC(=O)Nc1ccccc1 (stereo not given) [DIPERODON] | Compound NOT metabolized | Compound NOT metabolized | Compound metabolized | Compound NOT metabolized | Compound NOT metabolized | Compound NOT metabolized | Compound NOT metabolized | Compound NOT metabolized | Compound NOT metabolized | Compound metabolized | Compound NOT metabolized | Compound NOT metabolized | Compound NOT metabolized | Compound NOT metabolized | Compound metabolized | Compound NOT metabolized | Compound metabolized | Compound metabolized | Compound NOT metabolized | Compound NOT metabolized
